The record followed here is patent US8993282B2, “Carotenoid fermentation method” (JX Nippon Oil & Energy Corporation, priority 2008, dated 2015).

For the assay, the system named is Paracoccus sp. strain K-185. The experiment in a line: Glutamate supplementation, test tube culture (soybean meal medium), carotenoid by HPLC. In kind it is cell-based. On the procedure: In the examples, carotenoids were quantified by high performance liquid chromatography (HPLC) as follows.
Two columns of Wakosil-II 5 SIL-100 (φ4.6×250 mm) (Wako Pure Chemical Industries, Ltd., Japan) were connected to each other for use as a column. Elution was performed by flowing an n-hexane-tetrahydrofuran-methanol mixed solution (40:20:1), which was a mobile phase, at a flow rate of 1.0 mL/minute at a constant temperature around room temperature. The measurement was performed as follows. Samples were each dissolved in tetrahydrofuran and then diluted 100-fold with the mobile phase. Each dilution was injected in a volume of 20 μL. The column eluate was detected at a wavelength of 470 nm. As a reference for quantification, astaxanthin (SIGMA, Cat. No. A9335) was used. The astaxanthin concentration of the reference solution was determined using the following equation after measuring the absorbance (A) of the reference solution at 477 nm and the area percentage % (B) of the astaxanthin peak at the time of HPLC analysis under the above conditions.
Next, a medium of the following composition (glucose 30 g/L, soybean meal 20 g/L, ammonium sulfate 1.5 g/L, potassium dihydrogenphosphate 1.5 g/L, disodium hydrogenphosphate 12-hydrate 3.8 g/L, calcium chloride dihydrate 5.0 g/L, magnesium sulfate 7-hydrate 0.7 g/L, iron sulfate 7-hydrate 0.6 g/L, ester-based defoaming agent 0.2 g/L) was dispensed in 8 ml volumes into cotton-plugged test tubes having an inner diameter of 18 mm (2 tubes in total). One of the test tubes was supplemented with monosodium L-glutamate monohydrate to 30 mmol/L, while the other was supplemented with nothing as a control.
The resulting culture solution was then inoculated in 0.1. ml volumes into the two test tube mediums and cultured with shaking at 28° C. for 3 days at 300 spm. Each culture solution was measured for its carotenoid concentration by HPLC.

[1] abbreviates: Glutamic acid concentration 30 mmol/L, 28° C. for 3 days.

Take `N[C@@H](CCC(=O)O)C(=O)O` [Glutamic acid, glutamic acid]: the “produced carotenoid concentration compared to the sample without glutamic acid” value (30 mmol/L) is recorded as “higher produced carotenoid concentration”. Under setting [1], this compound came in with a 3-Hydroxyechinenone of 0.1 mg/L, an Adonixanthin of 1.6 mg/L, an Astaxanthin of 9.2 mg/L and an Asteroidenone of 0.1 mg/L. Also, under setting [1], the Canthaxanthin is given as 1.3 mg/L, the Echinenone stood at 0.6 mg/L, the Phoenicoxanthin was determined as 2.0 mg/L and the “Total carotenoid” value is given as 17.1 mg/L. Further, under setting [1], the Zeaxanthin was found to be 0.03 mg/L, the β-Carotene turned out to be 2.1 mg/L and the β-Cryptoxanthin was 0.02 mg/L.
